The subject of test [1] is potassium oxonate induced hyperuricemia. In words: Blood hypouricemic effect, potassium oxonate induced hyperuricemia. Type of test: in vivo. The settings on record: Rattus norvegicus, po, male SD rats, serum 2 hours after administration, read-out: Decrease (%) in UA concentration; for inhibition in vivo at 10 mg/kg: 10 mg/kg orally. As to the method: Effect of compound of the present invention as a test compound was studied on potassium oxonate induced hyperuricemia with male 7-week-old SD rats (Charles River Japan) and potassium oxonate (Aldrich) suspended in 1% gum arabic solution. Test compound was suspended in 0.5% CMC-Na solution, and then administered orally. Dosing was 10 mg/kg or 50 mg/kg. All volume of administered solution was 10 mL/kg. Potassium oxonate 250 mg/kg was administered to dorsal region of rats subcutaneously, 1 hour later each test compound was administered orally. For control group, only 0.5% CMC-Na solution as a vehicle was administrated. At 2 hours after administration of test compounds or vehicle, blood was collected under ether anesthesia, and serum was separated according to general method. Treated number was 5 for each group.
Measurement of concentration of uric acid was conducted with following prepared reagents. The deproteinization reagent was prepared in the following manner; 100 g of sodium tungstate was added to a 2 L flask, and exactly 75 mL of 85% phosphoric acid and 500 mL of water were added to the flask equipped with a reflux condenser, and heated for an hour. After cooling, the resulting faint yellow-green solution was diluted to 1 L exactly. Sodium carbonate-urea reagent was prepared in the following manner; 14 g of anhydrous sodium carbonate and 14 g of urea were dissolved in water and final volume of the solution was adjusted to 100 mL exactly. Phosphotungstic coloring reagent was prepared in 4-fold dilution of deproteinzation reagent described above with water. UA standard solution (10 mg/dL: Kyokuto pharmaceutical industrial CO., LTD) was used as an uric acid standard solution, and then serially diluted uric acid standard solution with purified water was also used for standard curve.
Three hundred μL of serum or standard was added to 2.1 mL of purified water, and then 150 μL of deproteination reagent was also added to the solution, followed by mixing. After incubating for 20 minutes, the mixture was centrifuged at 3000 rpm for 10 minutes. Sodium carbonate-urea reagent (0.5 mL) was added to 1.5 mL of supernatant, and the mixture was incubated for 20 minutes. Next, after addition of 250 μL of coloring reagent, further incubation was carried over 15 minutes. Absorbance at 660 nm was measured, and concentration of uric acid was calculated with standard curve. Percent decrease in concentration of uric acid was calculated by following formula. Percent decrease in concentration of uric acid (%)=(A−B)/A×100
In formula, A means average of concentration of blood uric acid in control group, B means average of concentration of blood uric acid in test compounds-treated group.

For test [2], the target named is T1, xanthine oxidase (from buttermilk) (Bos taurus, UniProt P80457).
T1 construct: xanthine oxidase (from buttermilk; biozyme laboratories); purchased biozyme laboratories; host or cells: buttermilk (natural source)
T1 sequence (P80457 whole entry): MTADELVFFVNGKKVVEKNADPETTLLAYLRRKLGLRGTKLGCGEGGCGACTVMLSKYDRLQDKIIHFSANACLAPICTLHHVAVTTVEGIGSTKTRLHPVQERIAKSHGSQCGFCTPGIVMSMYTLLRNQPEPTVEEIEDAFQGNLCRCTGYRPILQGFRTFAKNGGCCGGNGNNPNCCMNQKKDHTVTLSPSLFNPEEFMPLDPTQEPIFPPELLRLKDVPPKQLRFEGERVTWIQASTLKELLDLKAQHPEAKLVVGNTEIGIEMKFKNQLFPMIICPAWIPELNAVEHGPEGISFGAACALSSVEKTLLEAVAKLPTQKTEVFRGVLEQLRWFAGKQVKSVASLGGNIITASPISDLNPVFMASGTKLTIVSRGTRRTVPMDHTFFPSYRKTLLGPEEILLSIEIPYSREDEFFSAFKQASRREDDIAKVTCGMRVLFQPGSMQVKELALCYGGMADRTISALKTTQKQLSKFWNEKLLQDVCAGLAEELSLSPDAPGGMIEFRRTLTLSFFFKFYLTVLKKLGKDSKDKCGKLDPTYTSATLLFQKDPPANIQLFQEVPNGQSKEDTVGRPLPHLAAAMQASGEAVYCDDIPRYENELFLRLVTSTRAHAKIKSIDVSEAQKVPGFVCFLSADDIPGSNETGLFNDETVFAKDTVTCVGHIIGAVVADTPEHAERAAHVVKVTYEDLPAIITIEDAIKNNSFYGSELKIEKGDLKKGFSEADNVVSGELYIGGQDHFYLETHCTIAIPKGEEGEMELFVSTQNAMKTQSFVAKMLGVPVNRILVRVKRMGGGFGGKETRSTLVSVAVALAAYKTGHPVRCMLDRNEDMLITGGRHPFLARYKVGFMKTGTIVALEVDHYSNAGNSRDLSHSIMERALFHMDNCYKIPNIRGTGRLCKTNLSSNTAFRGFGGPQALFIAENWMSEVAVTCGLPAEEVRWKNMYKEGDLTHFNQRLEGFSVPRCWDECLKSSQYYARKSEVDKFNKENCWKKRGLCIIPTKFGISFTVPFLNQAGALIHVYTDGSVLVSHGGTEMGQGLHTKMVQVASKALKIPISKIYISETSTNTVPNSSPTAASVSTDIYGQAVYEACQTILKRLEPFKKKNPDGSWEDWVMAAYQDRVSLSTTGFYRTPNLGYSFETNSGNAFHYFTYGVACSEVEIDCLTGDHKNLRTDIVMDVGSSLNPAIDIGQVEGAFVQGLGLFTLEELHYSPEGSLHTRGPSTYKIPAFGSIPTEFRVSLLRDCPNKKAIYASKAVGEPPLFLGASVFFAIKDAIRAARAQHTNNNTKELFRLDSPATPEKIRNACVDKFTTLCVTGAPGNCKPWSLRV
In words: Xanthine oxidase inhibitory effect. Type of test: biochemical. The settings on record: 100 μmol/L xanthine, 5 mU/mL enzyme; read-out: X.O. inhibition IC50. Here is the method: Assay for inhibition of xanthine oxidase was performed in 100 μmol/L substrate concentration (final concentration), 5 mU/mL enzyme concentration (final concentration) and compounds of the present invention as test compounds which were prepared with xanthine oxidase (from buttermilk; biozyme laboratories), xanthine (Sigma) and phosphate-buffered saline (PBS). In addition, all test compounds were frozen for preservation in condition of 20 mmol/L DMSO solution and used for experiments after thawing at need. Method is following: after diluted solution of test compound was added to 90 μL of 11.1 mU/mL enzyme solution, the mixture was incubated for 10 minutes after mixing. To start reaction, 100 μL of 200 μmol/L substrate solution was added to there, 10 minutes later, the reaction was stopped by addition of 500 μL of 0.5 mol/L sulfuric acid, and then absorbance at […] was measured. Final concentration of test compound was a single concentration, 10 μmol/L in single well for initial screening and 6 concentrations, 10, 1 μmol/L, 100, 10, 1 nmol/L, 100 pmol/L in duplicate for assay to calculate 50% inhibitory concentration (IC50) which were used for assay. Percent inhibition was calculated according to the formula described below. Percent inhibition (%)=(A−B)/(A−C)×100
In formula, A means absorbance in wells without test compound, B means absorbance in wells with test compound, C means absorbance in blank wells.
IC50 value was calculated from percent inhibition in each concentration by nonlinear regression method.

For test [3], the target named is T2, HEK293 cells forced to express URAT1 (Homo sapiens, UniProt Q96S37).
T2 construct: host or cells: HEK293
T2 sequence (Q96S37 1-553): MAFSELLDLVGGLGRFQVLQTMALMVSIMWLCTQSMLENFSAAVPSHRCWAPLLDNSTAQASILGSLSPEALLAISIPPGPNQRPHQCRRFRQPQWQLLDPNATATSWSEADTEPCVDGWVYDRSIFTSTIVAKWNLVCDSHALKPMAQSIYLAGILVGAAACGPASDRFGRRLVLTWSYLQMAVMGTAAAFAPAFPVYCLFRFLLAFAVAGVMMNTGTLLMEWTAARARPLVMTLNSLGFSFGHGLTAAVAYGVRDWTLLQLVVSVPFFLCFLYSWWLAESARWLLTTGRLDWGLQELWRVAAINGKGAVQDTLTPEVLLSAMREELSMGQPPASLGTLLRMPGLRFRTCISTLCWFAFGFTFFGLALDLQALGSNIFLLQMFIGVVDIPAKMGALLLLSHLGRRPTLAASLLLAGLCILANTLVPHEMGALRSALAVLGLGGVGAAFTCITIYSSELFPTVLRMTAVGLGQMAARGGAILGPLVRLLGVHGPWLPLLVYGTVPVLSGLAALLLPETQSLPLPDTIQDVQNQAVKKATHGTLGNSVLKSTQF
In words: URAT1 inhibitory effect, [8-14C] uric acid uptake. Type of test: cell-based. The settings on record: test compound 100 μmol/L, 20 μmol/L uric acid, 5 minutes uptake. The source says: DMEM containing 10% FBS (supplemented with 0.05% geneticin, Nissui Pharmaceutical Co., Ltd.), HEK293 cells forced to express URAT1 (HCS (Human cell Systems), (Fuji Biomedix)), HBSS as washing buffer and HBSS substituted with Na-gluconate (NaCl in HBSS was substituted with Na-gluconate) were used for assay. [8-^14C] uric acid (moravek) was used as an uric acid reagent and added to assay buffer at 20 μmol/L as a final concentration. Compounds of the present invention were used as a test compound, 20 mmol/L stock solution of each test compound (DMSO solution) was diluted appropriately, and then the diluted test compound solution was added to assay buffer at 100 μmol/L as a final concentration including 0.5% final concentration of DMSO.
To prepare assay plates, at first, cells on subculture petri dish were peeled off using treatment of 0.05% trypsin-EDTA solution, and then seeded on Biocoat Poly-D-Lysine Cellware 24 well plate (BECTON DICKINSON) at a density of 2×10^5 cells/well and cultured for 2 days.
For the uptake study, at first, culture medium was removed by aspiration and cells were washed twice with HBSS (37° C.), then the buffer was replaced with 1 mL of assay buffer (37° C.). Cells were pre-incubated for 10 minutes. And then, the buffer was removed by aspiration and 0.5 mL of radioisotope ligand solution incubated at 37° C. was added, then cells were incubated for 5 minutes. After uptake, radioisotope solution was removed by aspiration, and immediately cells were washed three times with ice-cold HBSS, followed by resolving by addition of 0.5 mL of 0.5 mol/L NaOH. Cell lysate solution was transferred to a vial or 24 well plate for Betaplate, and mixed with 0.5 mL of liquid scintillator (Optiphase ‘Super Mix’; Perkin Elmer). Radioisotope activity was measured (using Betaplate 1450). As mean count in control solution not including test compound was 100%, percent inhibition was calculated by determining percent decrease in mean count in solution including test compound from mean count in control solution.

The term IC50 denotes the midpoint of a concentration-inhibition curve. The term inhibition denotes the percentage by which the read-out fell short of the control. As to `Cc1ccc2c(c1)c(C#N)cn2-c1ccc(C(=O)O)cc1` [XO-CH164], in test [1] (50 mg/kg orally), the inhibition in vivo at 50 mg/kg was determined as 51.4%. Also, the IC50 in test [2] turned out to be 0.0138 µM. Moreover, in test [3], the inhibition at 100 µM is 92.3%.
`N#Cc1cn(-c2ccc(C(=O)O)cc2)c2cccc(Cl)c12` [XO-CH201]: the IC50 in test [2] is 0.0505 µM. This compound came in with an inhibition at 100 µM in test [3] of 88.6%.
`N#Cc1cn(-c2ccc(C(=O)O)cc2)nc1-c1ccsc1` [XO-TT571]: the inhibition in vivo at 10 mg/kg in test [1] amounted to 62%. Further, in test [2], the IC50 amounted to 0.00479 µM. For the same compound, at 100 µM the inhibition in test [3] was 70.8%.
Turning to `N#Cc1cn(-c2ccc(C(=O)O)cc2)c2ccc(Cl)cc12` [XO-CH160], in test [2], the IC50 came to 0.0267 µM. In test [3], this compound gave an inhibition at 100 µM of 93.8%.
The like results for `N#Cc1cn(-c2ccc(C(=O)O)cc2)c2ccccc12` [XO-CH146] were, in that order, 0.0505 µM and 92.1%.
The like results for `N#Cc1cn(-c2ccc(C(=O)O)cc2)c2cc3c(cc12)OCO3` [XO-CH199] were, in that order, 0.0491 µM and 91.5%.
For `N#Cc1cn(-c2ccc(-c3nnn[nH]3)cc2)c2ccccc12` [XO-CH150], the IC50 in test [2] was 0.0316 µM. The inhibition at 100 µM in test [3] turned out to be 79.3%.
Regarding `N#Cc1cn(-c2ccc(C(=O)O)cc2)cc1-c1cccs1` [XO-B401], the inhibition in vivo at 10 mg/kg in test [1] stood at 78.8%. In addition, the IC50 in test [2] amounted to 0.00598 µM. The compound also registered an inhibition at 100 µM in test [3] of 59.5%.
For `N#Cc1cn(-c2ccc(C(=O)O)cc2)cc1-c1ccccc1C(F)(F)F` [XO-B412], the IC50 in test [2] was found to be 0.00638 µM. In test [3], this compound displayed an inhibition at 100 µM of 50.5%.
For `COc1ccc2c(c1)c(C#N)cn2-c1ccc(C(=O)O)cc1` [XO-CH183] the same measures were 0.0145 µM and 80.6%.
As to `Cc1ccsc1-c1cn(-c2ccc(C(=O)O)cc2)cc1C#N` [XO-B407], the inhibition in vivo at 10 mg/kg in test [1] came out at 76.9%. The IC50 in test [2] was 0.00473 µM. In test [3], this compound yielded an inhibition at 100 µM of 55.5%.
As for `N#Cc1cn(-c2ccc(C(=O)O)cc2)c2cc(Cl)ccc12` [XO-CH209], the IC50 in test [2] was 0.0608 µM. Besides, the inhibition at 100 µM in test [3] amounted to 97.1%.
The like results for `COc1ccc2c(C#N)cn(-c3ccc(C(=O)O)cc3)c2c1` [XO-CH207] were, in that order, 0.0965 µM and 93.9%.
For `COc1cccc2c1c(C#N)cn2-c1ccc(C(=O)O)cc1` [XO-CH211] the same measures were 0.0164 µM and 81.1%.
The like results for `N#Cc1cn(-c2ccc(C(=O)O)cc2)c2ncc(Br)cc12` [XO-KT16] were, in that order, 0.0992 µM and 92.4%.
Take `N#Cc1cn(-c2ccc(C(=O)O)cc2)c2ccc(F)cc12` [XO-CH168]: in test [2], the IC50 worked out at 0.0571 µM. The inhibition at 100 µM in test [3] is 92.5%.
Consider `N#Cc1cn(-c2ccc(C(=O)O)cc2)cc1-c1ccsc1` [XO-B418], for which the inhibition in vivo at 10 mg/kg in test [1] was determined as 79.1%. Further, the IC50 in test [2] came out at 0.00463 µM. In test [3], this compound came in with an inhibition at 100 µM of 62.6%.
`N#Cc1cn(-c2ccc(C(=O)O)cc2)nc1-c1cccs1` [XO-TT508]: in test [2], the IC50 amounted to 0.00374 µM. In addition, in test [3], the inhibition at 100 µM was 67.1%.
For the compound `N#Cc1cn(-c2ccc(C(=O)O)cc2)cc1-c1ccc2c(c1)OCCO2` [XO-B434], the inhibition in vivo at 10 mg/kg in test [1] was found to be 63.2%. The IC50 in test [2] came out at 0.00382 µM. The compound also gave an inhibition at 100 µM in test [3] of 68.8%.
As to `N#Cc1cn(-c2ccc(C(=O)O)cc2)c2nc(Cl)ccc12` [XO-KT18], the inhibition at 100 µM in test [3] turned out to be 95.2%.
